Measured values from US20050026951A1, “Methods of therapeutic treatment using retinoids with reduced drug interaction” (Allergan, Inc., priority 2003, published 2005).

Key:
RXRs = test: RXR activation; format: cell-based
Text: (§1) The selection of a retinoid component useful in accordance with the present invention can be accomplished using straightforward, conventional testing and/or assays, such as the transactivation assays set forth in Evans et al., U.S. Pat. No. 5,217,867; 5,262,300; 5,310,662; and 5,906,920, each of which is hereby incorporated in its entirety herein by reference, which are well known in the art. Such testing and/or assays can identify suitable useful retinoid components without undue experimentation.
In other aspects of the present invention, one or more compounds, for example, from a screening library of compounds, which are known to have or have been tested, using conventional and well known techniques, and found to have useful RAR activity, can be individually or collectively tested for RXR activity using conventional and well known testing procedures. See, for example, the above-noted Evans et al. patents, in particular U.S. Pat. No. 5,906,920.

RARs = test: RAR activation and subtype selectivity; format: cell-based
Text: as §1
Other well known and straightforward test methods and/or assays may be employed to determine the selectivity or specificity of an RAR active compound to RAR-alpha, RAR-beta and RAR-gamma. For example, using conventional and well known assays, for example, such as set forth in Klein et al. U.S. Pat. No. 5,776,699, the disclosure of which is incorporated in its entirety herein by reference, and/or the above-noted Evans et al. patents, the selectively or specificity of a compound to RAR-alpha, RAR-beta and RAR-gamma can be determined. Based on the results of such assays, one can determine whether or not a compound is useful in accordance with one or more aspects of the present invention.

[1] = oral; cited from earlier work
[2] = relative to tamoxifen in the absence of bexarotene; cited from earlier work
sebaceous glands = conditions: severe acne; cited from earlier work
patients = test: Two 24-week placebo-controlled safety studies of oral tazarotene plus 16- to 24-week dose-response evaluations; format: in vivo, human; conditions: 4.5 mg orally once daily
Procedure: Two multicenter, double-blind, randomized, placebo-controlled 24-week studies of identical design are conducted to evaluate the safety of oral tazarotene. In addition, 16- to 24-week dose-response evaluations are performed.
In the two safety trials, the incidence of adverse side effects with a 4.5 mg dose administered orally once daily is compared to the incidence of the same side effects with a placebo. […] The majority of these were mild in severity and typical of adverse effects associated with oral retinoids.

[3] = tested on: patients with moderate to very severe plaque psoriasis; test: Open-label extension study of oral tazarotene in plaque psoriasis non-responders; format: in vivo, human; conditions: 4.5 mg once daily, extension treatment period, across both groups
Procedure: Two multicenter, double-blind, placebo-controlled studies ware conducted to evaluate the efficacy and safety of oral tazarotene (4.5 mg once daily) in patients with moderate to very severe plaque psoriasis. […] Efficacy evaluations include overall lesional assessment (OLA), percent body surface area involvement, global response to treatment, plaque elevation, scaling, and erythema. OLA is graded on a 6-point scale (0=none, 1=minimal, 2=mild, 3=moderate, 4=severe, 5=very severe).

[4] = tested on: patients having nodulocystic acne; test: Two placebo-controlled dose-ranging safety studies of oral tazarotene in nodulocystic acne; format: in vivo, human; conditions: for Emotional lability, patients: all cases mild
Procedure: Two placebo-controlled dose-ranging studies are conducted to evaluate the safety of oral tazarotene in patients having nodulocystic acne. In the first study, patients receive orally administered tazarotene at daily doses of 0.4 mg to 2.8 mg in 96 (71+25) patients (12 weeks treatment plus 12 weeks post-treatment). In the second study, daily doses of 0.75 mg to 6 mg tazarotene are administered to 181 patients (24 weeks treatment plus 12 weeks post-treatment).

[5] = tested on: patients with severe nodulocystic acne; test: Multicenter double-blind placebo-controlled study of oral tazarotene in severe nodulocystic acne; format: in vivo, human
Text: A multicenter, double-blind, randomized, placebo-controlled parallel-group study is undertaken to determine the efficacy of orally administered tazarotene in treating severe nodulocystic acne.
In addition, washout periods for other medications for this study are: 1 week for vitamin A supplements >5000 IU; 2 weeks for topical anti-acne medications (e.g., retinoids, azelaic acid, benzoyl peroxide); 2 weeks for topical or systemic antibiotic therapy that may alter the course of acne; and 6 months for systemic retinoids.
Patients are randomized to receive placebo or oral tazarotene (0.75, 1.5, 3, or 6 mg), in a 1:1:1:1:1 ratio once daily for 24 weeks. After this, the patients are followed without treatment for an additional 12 weeks. Patients discontinuing from the treatment period due to adverse effects or lack of efficacy are eligible for entry into the post-treatment phase.
In the study, overall acne severity is rated as: none (no inflammatory acne lesions); mild (few to several papules or pustules, no nodulocystic lesions); moderate (several to many papules or pustules, few to several nodulocystic lesions); and severe (numerous or extensive papules or pustules, many, for example, at least about 5 or at least about 10, nodulocystic lesions).
Treatment success is defined as at least moderate (about 50%) improvement on the following 7-point global response scale: • 0=completely cleared • 1=almost cleared (about 90% improvement) • 2=marked response (about 75% improvement) • 3=moderate response (about 50% improvement) • 4=slight response (about 25% improvement) • 5=condition unchanged • 6=condition worsened
In this study, facial nodulocystic lesion count includes lesions greater than 5 mm in size. Facial papular/pustular lesion count includes lesions less than or equal to 5 mm in size. Facial non-inflammatory lesion count includes open and closed comedones.
Sebum output is assessed every 4 weeks at selected centers using the Sebutape® patches, sold by Cuderm Corporation. Urinalysis, chemistry, and hematology values are monitored. Bone formation and resorption assessments (serum bone alkaline phosphatase and serum amino terminal telopeptides, respectively) at selected centers are monitored.
Bone mineral density of spine and proximal femur at selected centers is monitored. Ligament calcification or osteophyte formation (lateral X-ray of the cervical and thoracic spine, and ankle calcaneous) is monitored. Epiphyseal growth plate closure (internal oblique X-ray of the ankle in patients less than or equal to 21 years old) is monitored.

[6] = Food effect on pharmacokinetics of tazarotenic acid after 6.3 mg oral tazarotene (high-fat breakfast vs 8-10 hour fast); format: in vivo, human; conditions: fed (high-fat meal) vs fasted
Procedure: For the purposes of this application, the bioavailability of a drug may be based on the human pharmokinetic parameters of maximum blood concentration (Cmax) and Area under the blood concentration-time curve (AUC).
The LC-MS/MS test for simultaneous detection of tazarotene and tazarotenic acid may be run as follows. One ml of plasma (EDTA-treated) is diluted with 1.0 ml of water. Diluted plasma is extracted using solid phase extraction (SPE) on a C18 cartridge. The eluate is evaporated, reconstituted in a water/methanol-based mobile phase, and injected onto a 4.6×50 mm, 3 μm pore size C-8 reverse phase high pressure liquid chromatography (HPLC) column (Agilent, Wilmington, Del.). Compounds are gradient-eluted at 1.2 mL/min and detected using an API 3000 triple quadrupole mass spectrometer with an Atmospheric Pressure Chemical Ionization (APCI) source (PE-Sciex, Concord, Ontario, Canada). […] The specific precursor-product ion pair monitored are m/z 352→324 for tazarotene, m/z […] for the tazarotene internal standard, m/z 324→294 for tazarotenic acid, and m/z 331→298 for the tazarotenic acid internal standard. The lower limit of quantitation at assay range tested is 0.1 ng/mL, with a coefficient of variation and deviation from nominal concentration of <15%.

Question: For `CC1(C)CC[S+]([O-])c2ccc(C#Cc3ccc(C(=O)O)cn3)cc21` (stereo not drawn) [AGN 190844], which “Activation of the RXRs” value (RXRs) is on record?
Answer: does not activate

Question: What about the “Activation of the RARs” value (RARs) of the same compound?
Answer: does not activate

Question: With `COc1cc(C)c(/C=C/C(C)=C/C=C/C(C)=C/C(=O)O)c(C)c1C` [acitretin] as the compound, how does the “Bioavailability in the presence of food” value [1] read?
Answer: increased in the presence of food

Question: What does the source list for `C=C(c1ccc(C(=O)O)cc1)c1cc2c(cc1C)C(C)(C)CCC2(C)C` [bexarotene]?
Answer: Bioavailability in the presence of food [1]: increased in the presence of food; Plasma concentration of coadministered tamoxifen [2]: reduced plasma concentration of tamoxifen

Question: With `CC1=C(/C=C/C(C)=C/C=C/C(C)=C\C(=O)O)C(C)(C)CCC1` [isotretinoin] as the compound, how does the “Bioavailability in the presence of food” value [1] read?
Answer: increased in the presence of food

Question: What about the “Decrease in sebum secretion rate” value (sebaceous glands) of the same compound?
Answer: about 90%

Question: What does the source list for `CCOC(=O)c1ccc(C#Cc2ccc3c(c2)C(C)(C)CCS3)nc1` [tazarotene]?
Answer: Incidence of altered hormone levels (elevated TSH and T4, decreased T4, abnormal thyroid function test) (patients): 0%; Incidence of hypertriglyceridemia, hypercholesterolemia, abnormal liver function tests, increased ALT, increased AST, desquamation, eye dryness, alopecia (patients; vs placebo): essentially the same incidence with oral tazarotene as with placebo; Incidence of arthralgia [3]: 20%; Incidence of asthenia [3]: 6%; Incidence of back pain [3]: 11%; Incidence of cheilitis [3]: 70%; Incidence of dry skin [3]: 25%; Incidence of headache [3]: 11%; Incidence of hypertriglyceridemia [3]: 6%; Incidence of infection [3]: 10%; Incidence of myalgia [3]: 15%; Severe dry skin ([4]; 3 mg and 6 mg groups): No patient; Emotional lability, patients ([4]; 3 mg group (1 patient)): 3%; Depression, patients ([4]; 3 mg group (3 patients: 2 mild, 1 severe)): 8%; Emotional lability, patients ([4]; 6 mg group (5 patients)): 14%; Changes in urinalysis, chemistry, or hematology measures (liver function tests, triglycerides, total cholesterol, HDL cholesterol) ([4]; 0.4 to 6 mg daily): no consistent dose-related clinically significant changes; Ligament calcification, osteophyte formation, changes in serum bone alkaline phosphatase, serum amino terminal telopeptides, bone density ([4]; 0.4 to 6 mg daily): not associated with any clinically significant; Patients withdrawing from either study due to adverse events ([4]; all groups of both studies incl. placebo (7/277)): 2.5%; Patients withdrawing due to adverse events, treatment period ([5]; 0.75 mg group (2/35)): 6%; Patients withdrawing due to adverse events, treatment period ([5]; 1.5 mg group (0/37)): 0%; Patients withdrawing due to adverse events, treatment period ([5]; 3 mg group (2/37)): 5%; Patients withdrawing due to adverse events, treatment period ([5]; 6 mg group (1/36)): 3%; Reduction of overall acne severity vs placebo ([5]; 6 mg, from week 16 until end of post-treatment phase (p ≦0.01)): significantly more than placebo; Abnormalities in liver function test results or elevated triglycerides, total cholesterol, or HDL cholesterol ([5]; 0.75 to 6 mg once daily, 24 weeks): not generally associated; Sebum secretion (Sebutape method) relative to placebo ([5]; 0.75 to 6 mg once daily, assessed every 4 weeks): does not substantially reduce sebum secretion

Question: Which results are given for `CC1(C)CCSc2ccc(C#Cc3ccc(C(=O)O)cn3)cc21` [tazarotenic acid]?
Answer: Cmax average ratio (test/reference) of tazarotenic acid ([6]; Day 0): 1.00; Cmax average ratio (test/reference) of tazarotenic acid ([6]; Day 9): 0.829; Activation of the RXRs (RXRs): does not activate; RAR subtype selectivity (RARs): selectivity for RAR-β and RAR-γ
